Patent US20230066011A1, “PYRROLOPYRIMIDINE DERIVATIVE, AND PHARMACEUTICAL COMPOSITION FOR PREVENTING OR TREATING PROTEIN KINASE-RELATED DISEASE COMPRISING SAME AS ACTIVE INGREDIENT” (VORONOI CO., LTD., priority 2019, published 2023)

Experiments:
human GST-CLK1 = molecular target: T1, human GST-CLK1 (Homo sapiens, UniProt P49759); assay: GST-CLK1 enzyme inhibition, ADP-Glo kinase assay; type: biochemical; conditions: ATP 10 μM, GST-CLK1 129-end
T1 construct: purified human GST-CLK1 (129-end, SignalChem) enzyme; purchased SignalChem
How it was run: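 Human GST-CLK1 (129-end, 3 ng) reacted with substrate and 10 μM ATP for 1 h at 25° C in 40 mM Tris-HCl pH 7.4, 20 mM MgCl2, 0.5 mg/mL BSA, 50 μM DTT. ADP-Glo luminescence was normalised to solvent control; IC50 (nM) from 3 data sets.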

MDA-MB-231 cell line = assay: Inhibition of proliferation of MDA-MB-231 cancer cells (Cell Titer-Glo); type: cell-based; conditions: Homo sapiens, 72 hours
How it was run: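 Step one, seed 2,000 cells per well in DMEM or RPMI. Step two, add compound at 11 final concentrations (10 to 0.000169 μM, 3-fold series) and culture for 72 hours. Step three, add Cell Titer-Glo, wait 10 min at room temperature, read luminescence and calculate GI50.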

TNF-α = assay: Inhibition of LPS-induced TNF-α secretion of THP-1 monocytes (ELISA); type: cell-based, human; conditions: Homo sapiens, THP-1; compound 0.5 μM, LPS 500 ng/mL, 24 hours; read-out: THP-1/TNF-α (% inhib)
How it was run: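 THP-1 monocytes grown 16 h at 37 °C, pretreated 1 h with compound at final 0.5 μM, then stimulated with LPS at final 500 ng/mL for 24 h. IL-6 and TNF-α in culture supernatant measured by ELISA (OD 450 nm).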

human DYRK1A and tau = assay: Inhibition of tau phosphorylation, ClariCELL Kinase Cell-Based Assay, HEK 293 cells expressing human DYRK1A and tau; conditions: for inhibition at 1 µM: HEK293, read-out: % inhibition at 1 uM, tau phosphorylation, compound 1 uM; for inhibition at 0.25 µM / inhibition at 0.5 µM: HEK293, tau phosphorylation; for inhibition at 0.25 µM: compound 0.25 uM; for inhibition at 0.5 µM: compound 0.5 uM
How it was run: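 Cell-based service assay: HEK 293 cells transiently expressing human DYRK1A and tau were treated with compound and lysed. Released tau was plate-captured and its phosphorylation quantified by ELISA with a phospho-tau-specific antibody.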

DYRK1B = molecular target: T2, DYRK1B (Homo sapiens, UniProt Q9Y463); assay: ScanMAX Kinase analysis panel, DYRK1B; type: binding; conditions: 1 μM in DMSO; <35% considered inhibitory; read-out: percent control (% control), DYRK1B
T2 construct: purchased DiscoverX Corp. (ScanMAX Kinase analysis panel, service)
Procedure: Specifically, the enzyme (kinase) selectivity of Example compounds 238, 361, 411, 157, 161, 228, and 158 selected from the Example compounds of the present invention was determined by commissioning DiscoverX Corp., and an experiment was performed using a ScanMAX™ Kinase analysis panel. In this case, a concentration of the drug with which the enzymes were treated was 1 μM in DMSO, and the percent control (% control) was defined in the same manner as in the following Expression 1.
(Example Compound−Positive Control)/(Negative Control−Positive Control)×100 [Expression 1]
wherein the positive control represents a compound having a percent control of 0%, and the negative control represents DMSO having a percent control of 100%. For the enzyme selectivity of the present invention, it was considered that the compound has an inhibitory activity on each of the enzymes when the percent control for the corresponding enzyme was <35% (i. e., less than 35%).

T2 sequence (Q9Y463 whole entry): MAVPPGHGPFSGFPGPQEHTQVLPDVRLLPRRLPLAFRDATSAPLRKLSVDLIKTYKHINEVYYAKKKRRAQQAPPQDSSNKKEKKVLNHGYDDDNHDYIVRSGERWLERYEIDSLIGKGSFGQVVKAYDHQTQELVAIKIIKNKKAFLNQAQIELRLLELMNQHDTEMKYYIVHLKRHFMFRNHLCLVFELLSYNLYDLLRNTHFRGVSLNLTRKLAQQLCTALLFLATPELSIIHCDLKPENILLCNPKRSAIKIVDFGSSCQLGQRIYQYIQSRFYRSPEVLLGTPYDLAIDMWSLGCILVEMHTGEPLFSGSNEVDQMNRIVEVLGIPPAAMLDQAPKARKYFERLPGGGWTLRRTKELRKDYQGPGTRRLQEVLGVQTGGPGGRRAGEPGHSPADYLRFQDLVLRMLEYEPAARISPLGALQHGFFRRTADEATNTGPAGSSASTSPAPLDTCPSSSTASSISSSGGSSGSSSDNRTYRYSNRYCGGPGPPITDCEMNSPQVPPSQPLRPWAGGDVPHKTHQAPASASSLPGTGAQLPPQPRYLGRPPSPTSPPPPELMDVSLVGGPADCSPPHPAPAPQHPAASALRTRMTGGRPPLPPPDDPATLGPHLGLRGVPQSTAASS
T1 sequence (P49759 129-484 limits assumed): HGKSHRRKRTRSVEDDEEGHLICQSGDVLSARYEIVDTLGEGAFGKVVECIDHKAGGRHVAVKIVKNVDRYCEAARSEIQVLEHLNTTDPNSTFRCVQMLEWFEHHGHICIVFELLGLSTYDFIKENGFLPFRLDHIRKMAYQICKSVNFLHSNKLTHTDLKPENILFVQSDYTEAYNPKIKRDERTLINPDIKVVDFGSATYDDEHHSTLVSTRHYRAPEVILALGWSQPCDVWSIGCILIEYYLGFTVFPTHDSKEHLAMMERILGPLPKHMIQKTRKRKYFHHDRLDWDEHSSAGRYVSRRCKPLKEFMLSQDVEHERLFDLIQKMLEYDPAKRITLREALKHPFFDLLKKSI

SMILES | IC50 (human GST-CLK1) [nM] | GI50 (MDA-MB-231 cell line) [nM] | remaining binding at 1 µM (DYRK1B) [%] | inhibition at 0.5 µM (TNF-α) [%] | inhibition at 1 µM (human DYRK1A and tau) [%] | inhibition at 0.25 µM (human DYRK1A and tau) [%] | inhibition at 0.5 µM (human DYRK1A and tau) [%]
O=C(c1ccc(Nc2nc(NC3CCCC3)c3c(C(F)(F)F)c[nH]c3n2)c2c1OCCO2)N1CCN(C2COC2)CC1 [Example 414, (8-((4-(cyclopentyl-amino)-5-(trifluoromethyl)-7H-pyrrolo[2,3-d]pyrimidin-2-yl)amino)-2,3-dihydrobenzo[b] [1,4]dioxin-5-yl) (4-(oxetan-3-yl)piperazin-1-yl)methanone] | < 100 | 101 to 300 | – | 40.3 | – | – | –
COc1cc(S(=O)(=O)N2CCC(N3C[C@H]4C[C@@H]3CO4)CC2)ccc1Nc1nc(C2CC2)c2c(C(F)(F)F)c[nH]c2n1 [Example 473, N-(4-((4-((1R,4R)-2-oxa-5-azabicyclo[2.2.1]heptan-5-yl)piperidin-1-yl)sulfonyl)-2-methoxyphenyl)-4-cyclopropyl-5-(trifluoromethyl)-7H-pyrrolo[2,3-d]pyrimidin-2-amine] | – | 101 to 300 | – | 11.3 | 73.3 | 16.3 | 35.8
CNc1nc(Nc2ccc(P3(=O)CCN(C4CC4)CC3)cc2OC)nc2[nH]cc(C(F)(F)F)c12 [Example 411, 1-cyclopropyl-4-(3-methoxy-4-((4-(methylamino)-5-(trifluoromethyl)-7H-pyrrolo[2,3-d]pyrimidin-2-yl)amino)phenyl)-1,4-azaphosphinane-4-oxide] | < 100 | – | 4.5 | – | 70.8 | 28.5 | 48.9
O=C(c1ccc(Nc2nc(C3CC3)c3c(C(F)(F)F)c[nH]c3n2)c2c1OCCO2)N1CCC(N2CCOCC2)CC1 [Example 228, (8-((4-cyclopropyl-5-(trifluoromethyl)-7H-pyrrolo[2,3-d]pyrimidin-2-yl)amino)-2,3-dihydrobenzo[b][1,4]dioxin-5-yl)(4-morpholinopiperidin-1-yl)methanone] | < 100 | – | 0 | – | 49 | 9.3 | 24.7
COCCNc1nc(Nc2ccc(C(=O)N3CCC(N4CCOCC4)CC3)c3c2OCC3)nc2[nH]cc(C#N)c12 [Example 359, 4-((2-methoxy-ethyl)ami-no)-2-((4-(4-morpholino-piperidine-1-carbonyl)-2,3-dihydro-benzofuran-7-yl)amino)-7H-pyrrolo[2,3-d]pyrimidine-5-carbonitrile] | < 100 | 301 to 1000 | – | 33.2 | 55.9 | 23.4 | 42.8
CCNc1nc(Nc2ccc(S(=O)(=O)N3CCC(N4CCOCC4)CC3)c3c2OCCO3)nc2[nH]cc(C(F)(F)F)c12 [Example 430, N^4-ethyl-N^2-(8-((4-morpholino-piperidin-1-yl)sulfonyl)-2,3-dihydro-benzo[b][1,4]dioxin-5-yl)-5-(trifluoromethyl)-7H-pyrrolo[2,3-d]pyrimidine-2,4-diamine] | 101 to 300 | 301 to 1000 | – | 4.5 | 65.3 | 10.8 | 41.6
O=C(c1ccc(Nc2nc(NCC3CC3)c3c(C(F)(F)F)c[nH]c3n2)c2c1CCO2)N1CCC(N2CCOCC2)CC1 [Example 461, (7-((4-((cyclo-propylmeth-yl)amino)-5-(trifluoromethyl)-7H-pyrrolo[2,3-d]pyrimidin-2-yl)amino)-2,3-dihydrobenzo-furan-4-yl)(4-morpho-linopiperidin-1-yl)methanone] | < 100 | – | – | 2.3 | 72.2 | 18.2 | 46.9
CNc1nc(Nc2ccc(C(=O)N3CCC(N4CCOCC4)CC3)c3c2OCCO3)nc2[nH]cc(C(F)(F)F)c12 [Example 238, (8-((4-(methylamino)-5-(trifluoromethyl)-7H-pyrrolo[2,3-d]pyrimidin-2-yl)amino)-2,3-dihydrobenzo[b][1,4]dioxin-5-yl)(4-morpholinopiperidin-1-yl)methanone] | < 100 | – | 0 | – | – | – | –

The next lines start with results.

IC50 (human GST-CLK1) [nM] | GI50 (MDA-MB-231 cell line) [nM] | remaining binding at 1 µM (DYRK1B) [%] | SMILES | inhibition at 0.5 µM (TNF-α) [%] | inhibition at 1 µM (human DYRK1A and tau) [%] | inhibition at 0.25 µM (human DYRK1A and tau) [%] | inhibition at 0.5 µM (human DYRK1A and tau) [%]
< 100 | 301 to 1000 | – | CNc1nc(Nc2ccc(S(=O)(=O)N3CCC(N4CCOCC4)CC3)c3c2OCCO3)nc2[nH]cc(C(F)(F)F)c12 [Example 219, N^4-methyl-N^2-(8-((4-morpholinopiperidin-1-yl)sulfonyl)-2,3-dihydrobenzo[b][1,4]dioxin-5-yl)-5-(trifluoromethyl)-7H-pyrrolo[2,3-d]pyrimidine-2,4-diamine] | 6.6 | 84.2 | 42.1 | 58.8
< 100 | 301 to 1000 | 0 | CNc1nc(Nc2ccc(S(=O)(=O)N3CCC(N4CCOCC4)CC3)cc2OC)nc2[nH]cc(C(F)(F)F)c12 [Example 157, N^2-(2-methoxy-4-((4-morpholinopiperidin-1-yl)sulfonyl)phenyl)-N^4-methyl-5-(trifluoromethyl)-7H-pyrrolo[2,3-d]pyrimidine-2,4-diamine 2,2,2-trifluoroacetate] | 6.7 | 83.9 | 41.2 | 71
– | 301 to 1000 | 0 | CCCNc1nc(Nc2ccc(S(=O)(=O)N3CCC(N4CCOCC4)CC3)cc2OC)nc2[nH]cc(C(F)(F)F)c12 [Example 161, N^2-(2-methoxy-4-((4-morpholinopiperidin-1-yl)sulfonyl)phenyl)-N^4-propyl-5-(trifluoromethyl)-7H-pyrrolo[2,3-d]pyrimidine-2,4-diamine] | – | 50 | 0 | 27.9
< 100 | 101 to 300 | 0.8 | CCNc1nc(Nc2ccc(S(=O)(=O)N3CCC(N4CCOCC4)CC3)cc2OC)nc2[nH]cc(C(F)(F)F)c12 [Example 158, N^4-ethyl-N^2-(2-methoxy-4-((4-morpholinopiperidin-1-yl)sulfonyl)phenyl)-5-(trifluoromethyl)-7H-pyrrolo[2,3-d]pyrimidine-2,4-diamine 2,2,2-trifluoroacetate] | – | 66.8 | 25.4 | 59.7
< 100 | – | 6.1 | C=CCNc1nc(Nc2ccc(S(=O)(=O)N3CCC(N4CCOCC4)CC3)cc2OC)nc2[nH]cc(C#N)c12 [Example 361, 4-(allylamino)-2-((2-methoxy-4-((4-morpholino-piperidin-1-yl)sulfonyl)phenyl)amino)-7H-pyrrolo[2,3-d]pyrimidine-5-carbonitrile] | 9.3 | – | – | –
